Experimental data as given in paper PMC8232621, “Antimicrobial Activity of a Library of Thioxanthones and Their Potential as Efflux Pump Inhibitors” (Pharmaceuticals, 2021).
“And” between values parts separate entries of the source, which are not always exact repeats. Equal entries are not always repeated.

Experiments:
SE03 [1] = test: Real-time ethidium bromide accumulation assay (efflux pump inhibition); assay type: cell-based, Salmonella enterica serovar Typhimurium SL1344; settings: compounds 50 µM (compound 12 at 17 µM), CCCP 25 µM, minute 60, EB 1 µg/mL
Procedure: (§1) The relative fluorescence index (RFI) was calculated based on the means of relative fluorescence units, and theses RFIs are depicted in Table 4.
(§2) The compounds were evaluated for their ability to inhibit the efflux of EB, an efflux pump substrate, in Salmonella enterica serovar Typhimurium SE03 and S. aureus 272123 strains, through real-time fluorimetry, monitoring the intracellular accumulation of EB, an efflux pump substrate. This was determined by the automated method using a CLARIOstar Plus plate reader (BMG Labtech, Ortenberg, Germany). Reserpine and CCCP were applied at 25 µM as positive controls, and the solvent DMSO was applied at 1% v/v. The bacterial strains were incubated in an appropriate culture media (TSB–S. aureus 272123; LB-B–SE03) at 37 °C until they reached an optical density (OD) of 0.6 at 600 nm. The culture was centrifuged at 13,000× g for 3 min, and the pellet was washed and resuspended with phosphate buffered saline (PBS, pH 7.4). The suspension was centrifuged again in the same conditions and resuspended in PBS.
(§3) Then, 50 µL of this solution were transferred into a 96-well black microtiter plate (Greiner Bio-One Hungary Kft, Mosonmagyaróvár, Fertősor, Hungary), and 50 µL of bacterial suspension (OD600 = 0.6) were added to each well. The plates were placed into the CLARIOstar plate reader, and the fluorescence was monitored at excitation and emission wavelengths of 530 nm and 600 nm, respectively, every minute for one hour on a real-time basis. From the real-time data, the activity of the compounds, namely the relative fluorescence index (RFI) of the last time point (minute 60) of the EB accumulation assay, was calculated according to the following equation:(1) RFI=RFtreated−RFuntreated/RFuntreated where RFtreated is the relative fluorescence (RF) at the last time point of EB accumulation curve in the presence of the compound, and RFuntreated is the RF at the last time point of the EB accumulation curve of the untreated control, having only the solvent (DMSO) control. The accumulation curves were designed using Microsoft Excel®. The samples were tested in triplicate, and the RFI presented comes from the average of these three values. The accumulation graphs present the mean of the RF at the last time point. The standard deviation (SD) was calculated automatically and included in the RF graphs.

E. coli SA/2 = test: Synergy with cefotaxime (antibiotic MIC in presence of compound); assay type: cell-based
Text: (§4) The referred library of thioxanthones was initially tested for their antimicrobial activity against six bacterial strains: the Gram-negative Escherichia coli ATCC 25922, Pseudomonas aeruginosa ATCC 27853 and Salmonella enterica serovar Typhimurium SL1344 (SE03), with the acrA gene deleted, and the Gram-positive Staphylococcus aureus ATCC 29213, Enterococcus faecalis ATCC 29212 and the methicillin and ofloxacin-resistant clinical isolate S. aureus 272123. For the synergy assay, two clinically relevant isolates were used: the extended-spectrum β-lactamase (ESBL)-producing E. coli SA/2 [23] and the vancomycin-resistant E. faecalis (VRE) B3/101 [23]. The antibiotics used were cefotaxime (CTX) and vancomycin (VAN), respectively.
The combined effect of the compounds and clinically relevant antimicrobial drugs was evaluated by determining the antibiotic’s MIC in the presence of each compound. […] The antibiotic tested was serially diluted, whereas the concentration of each compound was kept fixed. […]

S. marcescens = test: Quorum sensing inhibition assay (pigment production); assay type: cell-based, Serratia marcescens AS-1; settings: Serratia marcescens, read-out: Quorum Sensing Inhibition (mm) ± SD
Procedure: (§5) Concerning the QS inhibition assay, the sensor strain Chromobacterium violaceum CV026 and the AHL producer strain Sphingomonas paucimobilis Ezf 10-17 (EZF) were inoculated as parallel lines, and the AHL producers Chromobacterium violaceum wild-type 85 (wt85) and Serratia marcescens AS-1 were inoculated as a single line. The interaction between the strains and compounds 2–18 was evaluated as the reduction of pigment production, in millimeters (mm) (Table 5) with promethazine (PMZ) as a positive control.
(§6) The QS inhibitory effect of the compounds was examined on the EZF and the sensor CV026 strains, on the wt85 strain, and on S. marcescens. The method used was the parallel inoculation method, where pair combinations of the used sensor strain CV026 and the N-acyl-homoserine lactone (AHL) producing strain EZF were inoculated directly onto the LB*-A agar surface in parallel, at an approximate distance of 5 mm from each other. S. marcescens AS-1 and wt85 were inoculated as a single line. Filter paper disks (7 mm in diameter) were placed on the center of the inoculated line(s) and impregnated with 8 µL of a solution of 10 mM of the compounds. […] The agar plates were incubated at room temperature (20 °C) for 24−48 h. The QS inhibition was accessed visually, through the inhibition of pigment production. The discolored, but intact, bacterial colonies were measured with a ruler.

S. aureus 272123 [2] = test: Antibacterial activity, broth microdilution MIC; assay type: cell-based; settings: Staphylococcus aureus, 272123, read-out: Minimum Inhibitory Concentration (MIC)
Text: as §4
(§7) The minimum inhibitory concentration (MIC) for each compound was determined by broth microdilution method in a 96-well plate according to the Clinical and Laboratory Standard Institute (CLSI) guidelines. The medium used was MHB II. The concentrations tested ranged from 100 µM to 0.195 µM and were prepared from a stock solution of 10 mM in DMSO, for S. aureus 272123 and SE03; for the other strains, the concentrations tested ranged from 64 µg/mL to 4 µg/mL and were prepared from a stock solution of 10 mg/mL in DMSO. DMSO was used in subinhibitory concentrations (1% v/v). The MIC was determined by visual inspection.

S. aureus ATCC 29213 = test: Inhibition of biofilm formation (crystal violet); assay type: cell-based; settings: Staphylococcus aureus, ATCC29213, 48 h, S. aureus ATCC 29213, compounds 100 µM (compound 12 at 50 µM), read-out: Biofilm Inhibition (%) ± SD
wt85 = test: Quorum sensing inhibition assay (pigment production); assay type: cell-based, Chromobacterium violaceum wild-type 85; settings: Chromobacterium violaceum, read-out: Quorum Sensing Inhibition (mm) ± SD
Procedure: as §5, §6

SE03 [3] = test: Antibacterial activity, broth microdilution MIC; assay type: cell-based, Salmonella enterica serovar Typhimurium SL1344; settings: Salmonella enterica, read-out: Minimum Inhibitory Concentration (MIC)
Text: as §4, §7

S. aureus 272123 [4] = test: Inhibition of biofilm formation (crystal violet); assay type: cell-based, Staphylococcus aureus; settings: Staphylococcus aureus; S. aureus 272123; compounds 100 µM (compound 12 at 50 µM); 48 h; read-out: Biofilm Inhibition (%) ± SD
Procedure: Efflux mechanisms are one of the factors that can lead to biofilm-mediated resistance, along with slow growth and reduced penetration due to production of extracellular polysaccharides. […] Additionally, they can also modulate QS, through an influence in the transport of QS signal molecules. Thioxanthones 2–18 were tested for their potential for inhibiting biofilm formation by S. aureus ATCC 29213 and the multi-resistant S. aureus 272123. The biofilm inhibition, presented in percentage (%), was calculated based on the mean of absorbance units. Reserpine, which has previously been described as both an efflux pump inhibitor and an inhibitor of biofilm formation in Gram-positive bacteria was used as control in both strains.
The thioxanthone derivatives were tested for their ability to decrease the formation of biofilm. The bacterial strains used were the Gram-positive S. aureus […] and S. aureus 272123. The detection of the biofilm formation was carried out using the dye crystal violet (CV; 0.1% v/v). The initial inoculum was incubated in TSB overnight, and then diluted to an OD600 of 0.1. […] This meant that compound 12 was added at 50 µM, while the rest of the compounds were added at the concentration of 100 µM. The final volume in each well was 200 µL. Reserpine was used as a positive control, as it was the same compound used in the efflux pump inhibition assay and it has shown activity in the inhibition of biofilm formation in S. aureus strains. The plates were incubated at 30 °C for 48 h, with gentle stirring (100 rpm). After this incubation period, the TSB medium was discarded, and the plates were washed with tap water to remove unattached cells. Afterwards, 200 µL of a 0.1% v/v CV solution were added to the wells and incubated for 15 min at room temperature. Then, the CV solution was removed from the wells, and the plates were washed again with tap water, and 200 µL of a 70% ethanol solution was added to the wells. The biofilm formation was determined by measuring the OD600 using a Multiscan EX ELISA plate reader (Thermo Labsystems, Cheshire, WA, USA). The anti-biofilm effect of the compounds was expressed in the percentage (%) of decrease of biofilm formation.

EZF + CV026 = test: Quorum sensing inhibition assay (pigment production), parallel inoculation; assay type: cell-based; settings: disk with 8 µL of 10 mM solution, read-out: Quorum Sensing Inhibition (mm) ± SD
Procedure: as §5, §6

S. aureus 272123 [5] = test: Real-time ethidium bromide accumulation assay (efflux pump inhibition); assay type: cell-based, Staphylococcus aureus; parameters: key: RFI = (RFtreated − RFuntreated)/RFuntreated at minute 60; settings: compounds 50 µM, reserpine 25 µM, minute 60, EB 1 µg/mL
Procedure: as §1, §2, §3

[6] = Cytotoxicity in NIH/3T3 cell line (MTT assay); assay type: cell-based; settings: mouse, NIH/3T3 mouse fibroblast cells, read-out: IC50 (µM) ± SD, cytotoxicity
Procedure: Before each cytotoxicity assay using this cell line, cells were seeded in untreated 96-well flat-bottom microtiter plates, following a 4-hour incubation period in a humidified atmosphere (5% CO2, 95% air) at 37 °C [47]. […] Prior to the assay, the cells were seeded for 4 h using 1 × 10^4 cells/well. […] The plates were incubated for 24 h, after which a solution of MTT in PBS was added to each well and incubated for another 4 h. After this, 100 μL of SDS (10% in a 0.01 M HCl solution) was added to each well and incubated overnight at 37 °C. Doxorubicin was used as a positive control. Cell growth was determined in quadruplicate by measuring OD at λ = 540 nm (reference 630 nm) in a Multiscan EX ELISA reader (Thermo Labsystems, Cheshire, WA, USA). […] (2) 100−ODsample−ODmedium control/ODcell control−ODmedium control×100 […]

E. faecalis B3/101 = test: Synergy with vancomycin (antibiotic MIC in presence of compound); assay type: cell-based, Enterococcus faecalis
Text: as §4
The combined effect of the compounds and clinically relevant antimicrobial drugs was evaluated by determining the antibiotic’s MIC in the presence of each compound. […] The antibiotic tested was serially diluted, whereas the concentration of each compound was kept fixed. In the case of compound 12, the concentration used was 8 µg/mL. For all other compounds, the concentration used was 64 µg/mL. Antibiotic MICs were determined as described above.

SMILES	RFI ± SD (SE03 [1])	CTX MIC (antibiotic alone) (E. coli SA/2)	zone of inhibition at 10000 µM (S. marcescens)	MIC (S. aureus 272123 [2])	inhibition at 100 µM (S. aureus ATCC 29213)	zone of inhibition at 10000 µM (wt85)	MIC (SE03 [3])	inhibition at 100 µM (S. aureus 272123 [4])	zone of inhibition at 10000 µM (EZF + CV026)	RFI ± SD (S. aureus 272123 [5])	IC50 at 24 h [6]	VAN MIC (antibiotic alone) (E. faecalis B3/101)
N#CC(C#N)=NNc1cccc(Cl)c1 [CCCP, carbonyl cyanide 3-chlorophenylhydrazone, reference compound]	0.23 ± 0.04	–	–	–	–	–	–	–	–	–	–	–
CO/N=C(\C(=O)N[C@@H]1C(=O)N2C(C(=O)O)=C(COC(C)=O)CS[C@H]12)c1csc(N)n1 [CTX, cefotaxime, reference compound]	–	1124 µM and 512 µg/mL	–	–	–	–	–	–	–	–	–	–
CCCOc1ccc(OC)c2c(=O)c3ccccc3sc12 [Compound 4]	−0.10 ± 0.05	–	0 mm	> 100 µM	0.17 ± 0.83%	0 mm	> 100 µM	47.9 ± 1.08%	0 mm	0.11 ± 0.26	–	–
CCCOc1ccc(NCCc2nc3ccccc3[nH]2)c2c(=O)c3ccccc3sc12 [Compound 5]	−0.20 ± 0.01	–	0 mm	> 100 µM	0.37 ± 0.47%	0 mm	> 100 µM	0%	0 mm	−0.13 ± 0.04	–	–
CCCOc1ccc(NCCc2ccc([N+](=O)[O-])cc2)c2c(=O)c3ccccc3sc12 [Compound 6]	−0.20 ± 0.01	–	0 mm	> 100 µM	0%	0 mm	> 100 µM	0%	0 mm	0.09 ± 0.11	–	–
CCCOc1ccc(N2CCN(C(C)=O)CC2)c2c(=O)c3ccccc3sc12 [Compound 7]	0.49 ± 0.11	–	0 mm	> 100 µM	0%	0 mm	> 100 µM	47.1 ± 7.54%	30 ± 0.5 mm	−0.10 ± 0.02	–	–
COc1cccc2c1C(=O)c1c(O)c3c(c(O)c1C2=O)C[C@@](O)(C(=O)CO)C[C@@H]3O[C@H]1C[C@H](N)[C@H](O)[C@H](C)O1 [Doxorubicin, doxorubicin, reference compound]	–	–	–	–	–	–	–	–	–	–	12.1 ± 0.81 µM	–
CC(CN1c2ccccc2Sc2ccccc21)N(C)C (stereo not drawn) [PMZ, promethazine, reference compound]	–	–	18 ± 0.8 mm	–	–	40 ± 0.1 mm	–	–	41 ± 0.5 mm	–	–	–
COC(=O)[C@H]1[C@H]2C[C@@H]3c4[nH]c5cc(OC)ccc5c4CCN3C[C@H]2C[C@@H](OC(=O)c2cc(OC)c(OC)c(OC)c2)[C@@H]1OC [Reserpine, reserpine, reference compound]	–	–	–	–	30.4%	–	–	–	–	0.50 ± 0.04	–	–
CN[C@H](CC(C)C)C(=O)N[C@H]1C(=O)N[C@@H](CC(N)=O)C(=O)N[C@H]2C(=O)N[C@H]3C(=O)N[C@H](C(=O)N[C@H](C(=O)O)c4cc(O)cc(O)c4-c4cc3ccc4O)[C@H](O)c3ccc(c(Cl)c3)Oc3cc2cc(c3O[C@@H]2O[C@H](CO)[C@@H](O)[C@H](O)[C@H]2O[C@H]2C[C@](C)(N)[C@H](O)[C@H](C)O2)Oc2ccc(cc2Cl)[C@H]1O [VAN, vancomycin]	–	–	–	–	–	–	–	–	–	–	–	707 µM and 1024 µg/mL
